Measurements taken from publication PMC8148468, “Shikimic acid protects skin cells from UV-induced senescence through activation of the NAD+-dependent deacetylase SIRT1” (Aging (Albany NY), 2021).

Tests used:
Type in all cases: cell-based, human
UVB-irradiated HDF cells = experiment: Apoptosis detection, Annexin V-FITC/PI flow cytometry; settings: UVB-irradiated cells exposed to SA 10, 25, 50 mM
Experimental: Figure 4 (A) SRB and Trypan blue cell viability assays performed in cells treated with or without Shikimic acid (5, 10, 25 and 50 mM) for 24h. (B) Apoptosis detection using the Annexin V-FITC/PI double staining followed by flow cytometry in non-irradiated and non-treated cells, irradiated and non-treated cells and irradiated cells treated with Shikimic acid (10, 25 and 50 mM). (C) Representation and statistical analysis of the percentage of apoptotic cells in each of the conditions analyzed. (D) Cell cycle analysis using PI staining followed by flow cytometry. (E) Relative p16^INK4a mRNA levels monitored by qPCR in the indicated conditions. Student T-test, *p<0.05. (F) Immunofluorescence of γH2AX in non-irradiated and non-treated cells, irradiated and non-treated cells and irradiated cells treated with Shikimic acid (10, 25 and 50 mM). […]
Fluorescence-activated cell sorting (FACS) analyses of the cell cycle and apoptosis were carried out using, respectively, a Propidium Iodide Flow Cytometry Kit (Abcam, UK), and an Annexin V-FITC Apoptosis Staining/Detection Kit (Abcam, UK), following the manufacturer’s instructions. […]

HDF cells = experiment: SRB and Trypan blue cell viability assays; settings: Shikimic acid 5, 10, 25 and 50 mM, 24h
Experimental: Student T-test, *p<0.05, **p<0.01, ***p<0.001.
The protocol for senescence induction using UVB irradiation is described in the Supplementary Methods. SA-β-Gal staining, WST-1, sulforhodamine B (SRB) and trypan blue assays were performed as previously described. For the siRNA experiments, the protocol for senescence induction using UVB irradiation was the same as in the Supplementary Methods. Specific siRNA (Horizon discovery, UK) for SIRT1, SIRT2, SIRT6, BiP or scramble siRNA were incubated for 6 hours before each irradiation step.

[1] = system: HAS2 (hyaluronic acid synthase 2); experiment: UVB-induced senescence assay: HAS2 gene expression (qPCR); settings: UVB-irradiated HDF
Experimental: In the second approach, we established a method for inducing senescence in these cells with 2 cycles of UVB irradiation 72h apart (Figure 2A). The use of UVA to induce senescence was discarded due to its considerably longer time requirement, being unsuitable to screen 30 compounds within a reasonable period. Cells were treated with these compounds throughout the duration of the assay and cellular senescence was monitored with two markers: accumulation of SA-β-galactosidase (SA-β-Gal) activity, and the decrease in expression of HAS2 (hyaluronic acid synthase 2), a previously reported marker of skin senescence.
Figure 2 (A) Schematic representation of the protocol for senescence induction using UVB irradiation. Cells were treated -/+ the compounds from day 1 to 7 after seeding, irradiated with UVB on days 2 and 5 and harvested for analysis on day 7. […] (C) Phase-contrast (left column) and bright field (right column) microscope images of SA-β-Gal staining showing non-irradiated cells, UVB-irradiated cells non-treated and treated with Gallic acid or Shikimic acid at the indicated concentrations. (D) Percentage of SA-β-Gal positive cells and (E) Relative HAS2 mRNA levels in non-irradiated cells, UVB-irradiated cells and UVB-irradiated cells treated with Gallic acid or Shikimic acid at the indicated concentrations. Student T-test, *p<0.05, **p<0.01, ***p<0.001.
RNA was extracted from cell pellets using the Total RNA Purification Kit (Norgen, Canada), according to the manufacturer’s protocol. Extracted RNA was quantified using a NanoDrop® ND-1000 UV-Vis Spectrophotometer (Thermo Fisher Scientific, USA) and 300 ng of RNA were retrotranscribed to cDNA using the PrimeScriptTM RT reagent kit (Takara Bio Inc., Japan). cDNA was diluted 1/10 in ultrapure water and qPCR mix was prepared by adding cDNA (12 ng), SYBR green supermix (Bio Rad, USA), forward and reverse primers (0.2μM). The primers and their respective sequences are listed in Supplementary Table 1. qPCR protocol included one step at 95° C for 30 s, 40 cycles at 95° C for 10s, and 60° C for 1min. The results were analyzed with Bio-Rad CFX Manager software. BACT was used as a housekeeping gene to normalize gene expression.
Senescence induction by UVB irradiation For the non-irradiation control conditions, HDF were […]
After 24h, culture medium was removed and well plates. After 24h, culture medium was removed replaced by fresh cell culture medium containing the and replaced with fresh cell culture medium containing compounds at different concentrations. After 24h, the compounds at different concentrations. […]
cell culture medium was removed, and cells were cells/plate in fresh cell culture medium containing the irradiated at 25 mJ/cm2 of UVB light (312 nm) in a Bio- compound in 6-well plates. After 3 days, cells were […]
amount of PBS. PBS was then removed and fresh cell fresh cell culture medium containing the compound in culture medium with the compound was added to each 6-well plates. After 2 days, cells were processed well. After 3 days, cells were irradiated again under the according to the qPCR, β-Gal staining, apoptosis, cell same conditions. After 2 days, cells were processed cycle or immunofluorescence protocols. according to the qPCR, β-Gal staining, apoptosis, cell cycle or immunofluorescence protocols.

In the case of `O=C(O)C1=C[C@@H](O)[C@@H](O)[C@H](O)C1` [Shikimic acid], the “early apoptosis (annexin V, text)” value (UVB-irradiated HDF cells) is reported as “very mild and mostly insignificant levels of early apoptosis”, the “cytotoxicity (SRB/trypan blue assay)” value (HDF cells) is reported as “no differences in cytotoxicity” and the “HAS2 expression” value [1] is reported as “increase in HAS2 expression”.
